Test results reported in patent US8445678B2, “2-quinoxalinol salen compounds and uses thereof” (Auburn University, priority 2008, dated 2013).

How the values were obtained:
[1] = Stability of ligands, imines, intermediates and catalysts (temperature, air, moisture, solvents); assay type: physicochemical; details: exposure to air
[2] = Catalytic oxidation of diphenylmethane into benzophenone; details: yields by flash column chromatography and mass calculation
Procedure: The conversion of diphenylmethane into benzophenone was selected to test the activity of catalyst salquCu 1 and to develop optimized conditions, Based on previous reports with salphCu, three equivalents of H2O2 in CH3CN as solvent with 1% by molar of the catalyst salquCu 1 was heated to reflux temperature for 18 hours. Under these conditions, the isolated yield of benzophenone was only 27%. Six experimental factors were considered to optimizing this reaction: oxidant (FIG. 7), catalyst ratio (FIG. 8), reaction time (FIG. 9), oxidant ratio (FIG. 10), solvent, and types of catalyst (FIG. 11 and Table 10).
First, four oxidants were tested using CH3CN as solvent in each case, with 1% of catalyst 1 at reflux temperature for 18 hours. […] When tert-butylhydroperoxide in water was used as the oxidant, the yield of product, benzophenone, was around 80%. (FIG. 7) The use of tert-butylhydroperoxide in decane allows for a uniform or monophasic organic soluble catalyst system, and thus further improves the optimal yield. […]
The synthesis of the products depicted in Table 11 began with the combination of catalyst 1 (0.02 mmol, 15.2 mg) and 2.0 mmol of starting material (aryl methylene compound) dissolved in 2.0 mL acetonitrile with 1.0 mL tert-butylhydroperoxide decane solution (6.0 mmol). The reaction mixture was allowed to stir for 18 hours at 70° C. and monitored by TLC. […]

Q: With `Nc1cc2ncc(O)nc2cc1N` [Intermediate 1e] as the compound, how does the “stability in air / atmospheric conditions” value [1] read?
A: not stable and was found to decompose on exposure to air

Q: And the “Yield (%) of benzophenone, optimized conditions with different salquCu catalysts” value [2]?
A: 90%
